According to patent US11464802B2, “3-substituted piperidine compounds for Cbl-b inhibition, and use thereof” (Nurix Therapeutics, Inc., priority 2019, dated 2022):

Assays:
[1] = molecular target: T1, Cbl-b (Homo sapiens (Human), UniProt Q13191); assay: Cbl-b displacement assay (Cbl-b inhibition assay), Biological Example 8; assay type: binding; conditions: 0.125 nM Cbl-b final concentration (Low); Table 8-1; read-out: Cbl-b IC50 (Low)
Method in brief: (§1)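 Biotinylated Avitag-Cbl-b (residues 36-427) at 0.5 nM ("High") or 0.125 nM ("Low") final was preincubated 1 h at room temperature with compound (1% DMSO) in 20 mM HEPES pH 7.5, 150 mM NaCl, 0.01% Triton X-100, 0.01% BSA, 0.5 mM TCEP. Then 150 nM BODIPY FL inhibitor probe (~EC40) plus 2 nM streptavidin-terbium, 1 h; TR-FRET 520/620 read, IC50 derived.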

[2] = tested on: primary human total T-cells; assay: Primary human total T-cell activation: IL-2 secretion, Biological Example 9; assay type: cell-based; conditions: 48 hours, fold change over baseline; for fold induction at 0.3 µM: inhibitor 0.3 μM; for fold induction at 0.3 µM / fold induction at 3 µM: Table 9-1; for fold induction at 1 µM: inhibitor 1 μM; for fold induction at 3 µM: inhibitor 3 μM
[3] = tested on: primary human total T-cells; assay: Primary human total T-cell activation: CD25 surface staining, Biological Example 9; assay type: cell-based; conditions: 48 hours, fold change over baseline; for fold induction at 0.3 µM: inhibitor 0.3 μM; for fold induction at 0.3 µM / fold induction at 3 µM: Table 9-1; for fold induction at 1 µM: inhibitor 1 μM; for fold induction at 3 µM: inhibitor 3 μM
[4] = tested on: TC-1 cell tumor; assay: Cbl-b inhibitor in combination with HPV16 E7 cancer vaccine in mice bearing syngeneic TC-1 tumor, Biological Example 11; assay type: in vivo, C57BL/6 mice; conditions: HPV16 E7 vaccine SC + Compound No. 53 180 mg/kg PO BID; TILs on day 10; percent increase relative to vaccine without Cbl-b inhibitor
Description: In brief, the combination therapy was tested in C57BL/6 mice bearing a syngeneic TC-1 cell tumor. TC-1 cells were derived from primary murine lung cells, which had been transfected with human papillomavirus strain 16 (HPV16) early proteins 6 and 7 (E6 and E7) and an activated human c-Ha-ras oncogene (Lin et al., Cancer Research, 56: 21-26, 1996). Either 2.5×10^4 (first study) or 5.0×10^4 (second study) TC-1 cells (obtained from Johns Hopkins University) were injected subcutaneously into the mid flank of each mouse. Tumors were allowed to grow to 50-100 mm^3 at which time the animals were randomized and treatment was begun (day 0).
The HPV16 E7 cancer vaccine (Shrimali et al., Cancer Immunol Res, 5: 755-766, 2017) included 100 μg of a synthetic peptide with the amino acid sequence of a CTL epitope of residues 49-57 of E7 ([…] set forth as SEQ ID NO:2), mixed with 20 μg of a synthetic peptide with the amino acid sequence of a Th epitope known as PADRE (aK-Cha-[…]a set for as SEQ ID NO:3, where “a” is D alanine and “Cha” is L-cyclohexylalanine) and 20 μg of a Quil-A® adjuvant marketed by Brenntag Biosector A/S, which contains purified quillaja saponins. The HPV16 E7 vaccine or Dulbecco's phosphate-buffered saline (DPBS) was administered subcutaneously (SC) on days 2 and 9 (=day 16 and day 23 post TC-1 injection). The Cbl-b inhibitor was dissolved in a suitable formulation and administered at a suitable dose level and frequency as informed by prior pharmacokinetic and tolerability studies. In initial studies, the Cbl-b inhibitor (Compound No. 53) in a suitable vehicle, or the vehicle, was administered orally (PO) at a dose of 180 mg/kg twice per day (BID) beginning on day 0 (=day 14 post TC-1 injection). In further studies, a Cbl-b inhibitor formulation was administered orally (PO) or parenterally (e.g., IV, IP, SC, or intratumorally at one to three injection sites per tumor). In addition to the test group of mice who received the combination therapy (the Cbl-b inhibitor formulation plus the HPV16 E7 vaccine), the study included control groups of mice who received: the vehicle formulation plus DPBS, the Cbl-b inhibitor formulation plus DPBS, or the vehicle formulation plus the HPV16 E7 vaccine.
Tumor size was recorded twice a week starting on day 0 (day 14 post TC-1 injection) and continued through duration of dosing until humane endpoints were reached between day 33 and day 42 (=between day 47 and day 56 post TC-1 injection). The level of response was evaluated by comparing tumor growth in the test mice versus the control mice (10 mice per group). In addition, the level of immune activation was assessed by collecting tumors for analysis of tumor infiltrating lymphocytes (TILs) on day 10 (=day 24 post TC-1 injection) in test and control mice (6 mice per group). TILs were processed for flow cytometric analysis using standard methods to determine antigen specificity, expression of cell type-specific markers, and expression of activation markers such as granzyme B, CD25, CD69, PD-1, and LAG3. In further experiments, PBMCs and/or splenocytes were also collected and processed. Augmentation of the anti-tumor immune response by the combination therapy was assessed by comparing the relative percentage of total or E7-specific (tumor antigen-specific) CD8+ T cells, and the relative levels of expression of activation markers on immune cells in mice of the test and study groups.

[5] = molecular target: T1, Cbl-b; assay: Cbl-b displacement assay (Cbl-b inhibition assay), Biological Example 12; assay type: binding; conditions: 0.125 nM Cbl-b final concentration (Low); Table 12-1; read-out: Cbl-b IC50 (Low)
Method in brief: as §1

[6] = tested on: primary human total T-cells; assay: Primary human total T-cell activation: IL-2 secretion, Biological Example 13; assay type: cell-based; conditions: 48 hours, fold change over baseline; for fold induction at 0.3 µM: inhibitor 0.3 μM; for fold induction at 0.3 µM / fold induction at 3 µM: Table 13-1; for fold induction at 1 µM: inhibitor 1 μM; for fold induction at 3 µM: inhibitor 3 μM
[7] = tested on: primary human total T-cells; assay: Primary human total T-cell activation: CD25 surface staining, Biological Example 13; assay type: cell-based; conditions: 48 hours, fold change over baseline; for fold induction at 0.3 µM: inhibitor 0.3 μM; for fold induction at 0.3 µM / fold induction at 3 µM: Table 13-1; for fold induction at 1 µM: inhibitor 1 μM; for fold induction at 3 µM: inhibitor 3 μM
[8] = molecular target: T1, Cbl-b; assay: Cbl-b displacement assay (Cbl-b inhibition assay), TR-FRET probe displacement, Biological Example 1; assay type: binding
Method in brief: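 TR-FRET displacement of a BODIPY FL-labelled inhibitor probe (150 nM, ~EC40) from biotin-Avitag truncated Cbl-b, detected via 2 nM streptavidin-Tb, 1 h, room temperature. Compound in 1% DMSO pre-incubated 1 h with Cbl-b at 0.5 nM (High) or 0.125 nM (Low) in 20 mM HEPES pH 7.5, 150 mM NaCl, 0.5 mM TCEP.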

[9] = tested on: primary human total T-cells; assay: Primary human total T-cell activation: IL-2 secretion, Biological Example 2; assay type: cell-based; conditions: 48 hours, fold change over baseline; for fold induction at 0.3 µM: inhibitor 0.3 μM; for fold induction at 1 µM: inhibitor 1 μM; for fold induction at 3 µM: inhibitor 3 μM
[10] = tested on: primary human total T-cells; assay: Primary human total T-cell activation: CD25 surface staining, Biological Example 2; assay type: cell-based; conditions: 48 hours, fold change over baseline; for fold induction at 0.3 µM: inhibitor 0.3 μM; for fold induction at 1 µM: inhibitor 1 μM; for fold induction at 3 µM: inhibitor 3 μM
[11] = anti-CD3/anti-CD28 co-stimulation
[12] = anti-CD3/anti-CD28 co-stimulation, Table 9-1, read-out: IL-2 secretion CD3/CD28 1 μM
[13] = anti-CD3 alone, Table 9-1, read-out: IL-2 secretion CD3 1 μM
[14] = anti-CD3/anti-CD28 co-stimulation, Table 9-1, read-out: CD25 staining CD3/CD28 1 μM
[15] = anti-CD3 alone, Table 9-1, read-out: CD25 staining CD3 1 μM
[16] = anti-CD3/anti-CD28 co-stimulation, Table 13-1, read-out: IL-2 secretion CD3/CD28 1 μM
[17] = anti-CD3 alone, Table 13-1, read-out: IL-2 secretion CD3 1 μM
[18] = anti-CD3/anti-CD28 co-stimulation, Table 13-1, read-out: CD25 staining CD3/CD28 1 μM
[19] = anti-CD3 alone, Table 13-1, read-out: CD25 staining CD3 1 μM
[20] = 0.125 nM Cbl-b final concentration (Low), read-out: Cbl-b activity IC50 (Low)
[21] = Cbl-b concentration (High or Low) not given, read-out: IC50 values in the Cbl-b inhibition assay of Biological Example 1
[22] = anti-CD3/anti-CD28 co-stimulation, read-out: IL-2 secretion CD3/CD28 1 μM
[23] = anti-CD3 alone, read-out: IL-2 secretion CD3 1 μM
[24] = anti-CD3/anti-CD28 co-stimulation, read-out: CD25 staining CD3/CD28 1 μM
[25] = anti-CD3 alone, read-out: CD25 staining CD3 1 μM

T1 sequence (Q13191 36-427): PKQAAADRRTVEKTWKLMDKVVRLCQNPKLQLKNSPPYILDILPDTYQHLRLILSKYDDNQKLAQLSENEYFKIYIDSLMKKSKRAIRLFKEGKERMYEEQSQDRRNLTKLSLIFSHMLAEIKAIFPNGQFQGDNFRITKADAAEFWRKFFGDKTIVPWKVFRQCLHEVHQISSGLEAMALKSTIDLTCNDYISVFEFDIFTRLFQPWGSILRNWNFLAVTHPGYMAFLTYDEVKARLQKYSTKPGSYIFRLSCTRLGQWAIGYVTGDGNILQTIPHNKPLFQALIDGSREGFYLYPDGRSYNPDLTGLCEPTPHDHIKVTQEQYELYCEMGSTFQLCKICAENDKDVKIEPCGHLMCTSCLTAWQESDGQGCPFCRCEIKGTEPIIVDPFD

SMILES	IC50 [1]	fold induction at 0.3 µM [2, 11]	fold induction at 1 µM [2, 12]	fold induction at 1 µM [2, 13]	fold induction at 3 µM ([2]; anti-CD3 alone)	fold induction at 0.3 µM [3, 11]	fold induction at 1 µM [3, 14]	fold induction at 1 µM [3, 15]	fold induction at 3 µM ([3]; anti-CD3 alone)	IC50 [5]	fold induction at 0.3 µM [6, 11]	fold induction at 1 µM [6, 16]	fold induction at 1 µM [6, 17]	fold induction at 3 µM ([6]; anti-CD3 alone)	fold induction at 0.3 µM [7, 11]	fold induction at 1 µM [7, 18]	fold induction at 1 µM [7, 19]	fold induction at 3 µM ([7]; anti-CD3 alone)	IC50 [8, 20]	IC50 [8, 21]	other results
Cc1cc(C(=O)Nc2cccc(C3(Cc4nncn4C)COC3)c2)nc(C2CC2)n1 [Compound 53]	> 5 nM	< 10	10 to 15	0.34 to 0.66	0.34 to 0.66	> 1.39	> 1.39	> 1.14	> 1.14	> 5 nM	< 10	11 to 15	0.34 to 0.66	0.34 to 0.66	> 1.39	> 1.39	> 1.14	> 1.14	–	–	Mean increase in CD8+ T cells in TILs: % E7 positive T cells [4]: 33.7%; Mean increase in CD8+ T cells in TILs: % Granzyme positive (E7+ T cells) [4]: 7.86%; Mean increase in CD8+ T cells in TILs: % Granzyme positive (E7− T cells) [4]: 4.12%; Mean increase in CD8+ T cells in TILs: % LAG3 positive (E7+ T cells) [4]: 13.49%; Mean increase in CD8+ T cells in TILs: % LAG3 positive (E7− cells) [4]: 0.96%; Mean increase in CD8+ T cells in TILs: % PD1 positive (E7+ T cells) [4]: 14.97%; Mean increase in CD8+ T cells in TILs: % PD1 positive (E7− T cells) [4]: 20.23%
CCNc1cc(C2(Cc3nncn3C)COC2)cc(N2Cc3c(cc(CN4CCC[C@H](C)C4)cc3C(F)(F)F)C2=O)n1 [Compound 44, 2-[6-(ethylamino)-4-{3-[(4-methyl-1,2,4-triazol-3-yl)methyl]oxetan-3-yl}pyridin-2-yl]-6-{[(3S)-3-methylpiperidin-1-yl]methyl}-4-(trifluoromethyl)-3H-isoindol-1-one]	< 1 nM	< 10	< 10	< 0.33	0.34 to 0.66	1.25 to 1.39	1.25 to 1.39	1.05 to 1.14	1.05 to 1.14	< 1 nM	< 10	< 10	< 0.33	0.34 to 0.66	1.25 to 1.39	1.25 to 1.39	1.05 to 1.14	1.05 to 1.14	< 1 nM	< 1 nM	fold induction at 0.3 µM [9, 11]: > 15; fold induction at 1 µM [9, 22]: > 15; fold induction at 1 µM [9, 23]: > 0.66; fold induction at 3 µM ([9]; anti-CD3 alone): > 0.66; fold induction at 0.3 µM [10, 11]: > 1.39; fold induction at 1 µM [10, 24]: > 1.39; fold induction at 1 µM [10, 25]: > 1.14; fold induction at 3 µM ([10]; anti-CD3 alone): > 1.14
CCOc1cc(C2(Cc3nncn3C)COC2)cc(N2Cc3c(cc(CN4CCC[C@H](C)C4)cc3C(F)(F)F)C2=O)n1 [Compound 39, 2-(6-ethoxy-4-{3-[(4-methyl-1,2,4-triazol-3-yl)methyl]oxetan-3-yl}pyridin-2-yl)-6-{[(3S)-3-methylpiperidin-1-yl]methyl}-4-(trifluoromethyl)-3H-isoindol-1-one]	< 1 nM	> 15	> 15	> 0.66	> 0.66	> 1.39	> 1.39	> 1.14	> 1.14	< 1 nM	> 15	> 15	> 0.66	> 0.66	> 1.39	> 1.39	> 1.14	> 1.14	< 1 nM	< 1 nM	fold induction at 0.3 µM [9, 11]: > 15; fold induction at 1 µM [9, 22]: > 15; fold induction at 1 µM [9, 23]: > 0.66; fold induction at 3 µM ([9]; anti-CD3 alone): > 0.66; fold induction at 0.3 µM [10, 11]: > 1.39; fold induction at 1 µM [10, 24]: > 1.39; fold induction at 1 µM [10, 25]: > 1.14; fold induction at 3 µM ([10]; anti-CD3 alone): > 1.14
